# Laboratory results from publication PMC5733478, “A Non-imaging High Throughput Approach to Chemical Library Screening at the Unmodified Adenosine-A3 Receptor in Living Cells” (Frontiers in Pharmacology, 2017).
# Where a name gives a salt, the structure may show the parent alone.
# Target: T1, human A3AR (Homo sapiens, UniProt P0DMS8)
# T1 construct: expressed in transfected cells
# T1 sequence (P0DMS8 1-318): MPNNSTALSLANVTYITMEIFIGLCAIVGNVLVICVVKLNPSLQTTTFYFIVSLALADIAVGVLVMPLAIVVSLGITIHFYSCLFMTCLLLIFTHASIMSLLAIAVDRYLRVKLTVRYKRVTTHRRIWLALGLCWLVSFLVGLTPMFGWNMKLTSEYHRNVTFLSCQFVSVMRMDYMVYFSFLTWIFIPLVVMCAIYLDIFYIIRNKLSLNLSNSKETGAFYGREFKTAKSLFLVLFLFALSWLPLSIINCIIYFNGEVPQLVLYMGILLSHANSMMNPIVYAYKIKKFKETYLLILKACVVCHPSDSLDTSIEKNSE
# Experiment: LOPAC library primary screen: single concentration (10 μM) inhibition of 25 nM CA200645 binding, PHERAstar FS
# Conditions: not given
row,Compound,% 25 nM CA200645 binding
1,C[C@H](Cc1ccccc1)Nc1ncnc2c1ncn2[C@@H]1O[C@H](CO)[C@@H](O)[C@H]1O [R(-)-N6-(2-Phenylisopropyl)adenosine],69.2 ± 26.4%
2,COC[C@H]1OC(=O)c2coc3c2[C@@]1(C)C1=C(C3=O)[C@@H]2CCC(=O)[C@@]2(C)C[C@H]1OC(C)=O [Wortmannin from Penicillium funiculosum],82.6 ± 17.7%
3,NC1=NCC2c3ccccc3Cc3ccccc3N12 (stereo not drawn) [Epinastine hydrochloride],96.6 ± 14.2%
4,Br.Cc1o[nH]c(=O)c1CC(N)C(=O)O (racemic) [(±)-AMPA hydrobromide],96.2 ± 10.6%
5,C[N+]1(C)C2CCC1CC(OC(=O)c1c[nH]c3ccccc13)C2.[I-] (stereo not drawn),95.6 ± 4.9%
6,CC(=O)c1ccc2c(c1)N(CCCN(C)C)c1ccccc1S2 [Acepromazine maleate],90.7 ± 4.5%
7,N[C@@H]1[C@H]2CN(c3nc4c(cc3F)c(=O)c(C(=O)O)cn4-c3ccc(F)cc3F)C[C@@H]12 [Trovafloxacin mesylate],94.4 ± 17.2%
8,COC(=O)C1=CCCN(C)C1 [Arecoline hydrobromide],81.8 ± 27.0%
9,Cl.NC1C=CC=C(C(=O)O)C1 (stereo not drawn) [Gabaculine hydrochloride],97.5 ± 8.4%
10,"Cn1c(=O)c2[nH]c(-c3ccccc3)nc2n(C)c1=O [1,3-Dimethyl-8-phenylxanthine]",91.8 ± 4.8%
11,NCC(CC(=O)O)c1ccc(Cl)cc1 (racemic) [(±)-Baclofen],99.6 ± 6.9%
12,COC(=O)Nc1nc2ccc(C(=O)c3cccs3)cc2[nH]1 [Nocodazole],79.0 ± 5.7%
13,C=C[C@H]1C[N@@]2CC[C@H]1C[C@@H]2[C@@H](O)c1ccnc2ccc(OC)cc12 [Quinidine sulfate],111.6 ± 16.6%
14,CCN1C(=O)C=CC1=O [N-Ethylmaleimide],99.8 ± 13.3%
15,NCCc1ccc(O)c(O)c1 [Dopamine hydrochloride],93.0 ± 11.1%
16,CN1CC[C@@]2(C)c3cc(O)ccc3N(C)[C@@H]12.O=C(O)/C=C/C(=O)O [(-)-Eseroline fumarate],105.8 ± 9.3%
17,Nc1c[n+](N2CCOCC2)no1.[Cl-] [3-Morpholinosydnonimine hydrochloride],114.0 ± 15.4%
18,CN1CCN2c3ccccc3Cc3ccccc3C2C1 (stereo not drawn) [Mianserin hydrochloride],92.0 ± 7.7%
19,"Oc1cccc2c(O)nccc12 [1,5-Isoquinolinediol]",97.2 ± 4.1%
20,Cl.NC[C@@H]1O[C@H](c2ccccc2)Cc2c1ccc(O)c2O [A-68930 hydrochloride],95.6 ± 9.3%
21,Br.CN1Cc2sccc2C(c2ccc(O)c(O)c2)C1 (stereo not drawn) [SKF-89145 hydrobromide],97.3 ± 9.6%
22,Clc1ccc2nsnc2c1NC1=NCCN1 [Tizanidine hydrochloride],107.2 ± 6.1%
23,Ro 8-4304,107.2 ± 11.5%
24,CC(C)(C)OC(=O)NC1[C@H]2CNC[C@@H]12 (stereo partly drawn) [CP-101537],102.3 ± 6.7%

row,Compound,% 25 nM CA200645 binding
1,NCCS(=O)O [Hypotaurine],94.6 ± 26.1%
2,trans-(±)-ACPD,83.6 ± 13.4%
3,Br.CCCN(CCC)[C@@H]1CCc2ccc(O)cc2C1 [R-(+)-7-Hydroxy-DPAT hydrobromide],110.9 ± 7.0%
4,C=CCNc1ncnc2ccc(Br)cc12 [SMER28],86.4 ± 8.7%
5,Br.Br.N=C(N)SCCN,91.5 ± 12.4%
6,O=C1NC(=O)/C(=C/c2ccc3c(c2)OC(F)(F)O3)S1 [AS 604850],58.3 ± 11.4%
7,C=C1C[C@@]23CC[C@H]4[C@@](C)(CCC[C@@]4(C)C(=O)O[C@@H]4O[C@H](CO)[C@@H](O)[C@H](O)[C@H]4O)[C@@H]2CC[C@]1(O[C@@H]1O[C@H](CO)[C@@H](O)[C@H](O)[C@H]1O[C@@H]1O[C@H](CO)[C@@H](O)[C@H](O)[C@H]1O)C3 [Stevioside],92.4 ± 13.9%
8,COc1ccc2c(c1)CC[C@@H]1[C@@H]2CC[C@]2(C)[C@@H](NCCCCCCN3C(=O)CCC3=O)CC[C@@H]12 [U-73343],99.9 ± 5.3%
9,Nc1ncnc2n[nH]c(Nc3ccc(F)cc3)c12 [CGP 57380],81.2 ± 23.0%
10,Nc1nc(N)c2nc(-c3ccccc3)c(N)nc2n1 [Triamterene],95.3 ± 10.4%
11,CCCCCN(C)CCC(O)(P(=O)([O-])O)P(=O)(O)O.[Na+] [Ibandronate sodium],95.5 ± 10.4%
12,O=C(CCCN1CC=C(n2c(=O)[nH]c3ccccc32)CC1)c1ccc(F)cc1 [Droperidol],101.2 ± 18.5%
13,CN1[C@@H]2CC[C@H]1C[C@@H](OC(c1ccccc1)c1ccccc1)C2 [Benztropine mesylate],96.0 ± 5.8%
14,O=NN(CCCl)C(=O)NCCCl [Carmustine],102.2 ± 1.0%
15,CC1CN(S(=O)(=O)c2cccc3cnccc23)CCN1.Cl.Cl (stereo not drawn),95.4 ± 14.7%
16,Br.CCCN1CCc2cc(O)cc3c2[C@H]1Cc1ccc(O)c(O)c1-3,89.0 ± 14.4%
17,O=C1NCC2(CCN(CCc3ccccc3)CC2)O1 [Fenspiride hydrochloride],81.2 ± 5.0%
18,O=c1c(O)c(-c2cc(O)c(O)c(O)c2)oc2cc(O)cc(O)c12 [Myricetin],62.7 ± 9.0%
19,NCC(O)(CS(=O)(=O)O)c1ccc(Cl)cc1 (stereo not drawn) [2-Hydroxysaclofen],92.7 ± 0.2%
20,CN(C)CCCC1(c2ccc(F)cc2)OCc2cc(C#N)ccc21 (stereo not drawn) [Citalopram hydrobromide],97.2 ± 4.4%
21,PD-184161,50.8 ± 14.3%
22,N[C@@H](CS(=O)O)C(=O)O [L-Cysteinesulfinic Acid],83.6 ± 21.3%
23,"Cc1cn([C@H]2C=C[C@@H](CO)O2)c(=O)[nH]c1=O [2',3'-didehydro-3'-deoxythymidine]",82.1 ± 11.9%
24,O=C(O)c1nn(Cc2ccc(Cl)cc2Cl)c2ccccc12 [Lonidamine],94.6 ± 7.2%

row,Compound,% 25 nM CA200645 binding
1,Nc1nc(SCc2ccc([N+](=O)[O-])cc2)c2ncn([C@@H]3O[C@H](CO)[C@@H](O)[C@H]3O)c2n1 [S-(4-Nitrobenzyl)-6-thioguanosine],91.9 ± 3.2%
2,C=C(C)[C@H]1Cc2c(ccc3c2O[C@@H]2COc4cc(OC)c(OC)cc4[C@@H]2C3=O)O1 [Rotenone],92.4 ± 12.1%
3,CSc1nc(N)c2ncn([C@@H]3O[C@H](COP(=O)([O-])OP(=O)([O-])[O-])[C@@H](O)[C@H]3O)c2n1.O.[Na+].[Na+].[Na+],100.3 ± 5.3%
4,CC(C)Oc1cccnc1N(C)C1CCN(Cc2ccccc2)CC1.O=C(O)/C=C\C(=O)O [U-101958 maleate],102.1 ± 9.0%
5,CC(=O)[C@H]1CC[C@H]2[C@@H]3CC=C4C[C@@H](OS(=O)(=O)[O-])CC[C@]4(C)[C@H]3CC[C@]12C.[Na+] [Pregnenolone sulfate sodium],100.9 ± 23.1%
6,CC[C@@H](C(N)=O)N1CCCC1=O [Levetiracetam],102.2 ± 9.6%
7,NCCc1c[nH]c2ccc(C(N)=O)cc12.O=C(O)/C=C\C(=O)O [5-Carboxamidotryptamine maleate],85.7 ± 14.5%
8,CC(C)(CO)Cc1cc(C(C)(C)C)c(O)c(C(C)(C)C)c1 [CGP-7930],87.6 ± 4.9%
9,O=C1NCc2c1c1c3ccccc3[nH]c1c1[nH]c3ccccc3c21 [Staurosporine aglycone],81.9 ± 6.1%
10,Oc1ccc(Cn2cc[nH]c2=S)cc1 [1-(4-Hydroxybenzyl)imidazole-2-thiol],87.3 ± 21.6%
11,CC(C)(C=O)Cc1cc(C(C)(C)C)c(O)c(C(C)(C)C)c1 [CGP-13501],97.4 ± 7.1%
12,Nc1ncnc2c1ncn2[C@@H]1O[C@H](COP(=O)(O)CP(=O)(O)OP(=O)([O-])[O-])[C@H](O)C1O.[Li+].[Li+] (stereo partly drawn),102.3 ± 5.3%
13,COC(=O)[C@H]1[C@H]2C[C@@H]3c4[nH]c5cc(OC)ccc5c4CCN3C[C@H]2C[C@@H](OC(=O)c2cc(OC)c(OC)c(OC)c2)[C@@H]1OC [Reserpine],83.8 ± 14.9%
14,Br.COc1ccccc1N1CCN(CCCCN2C(=O)c3ccccc3C2=O)CC1 [NAN-190 hydrobromide],91.1 ± 29.0%
15,O=C([O-])c1cc2cc(Cc3cccnc3)ccc2o1.[Na+] [Furegrelate sodium],89.9 ± 4.6%
16,Cc1c2ccncc2c(C)c2c1[nH]c1ccccc12 [Ellipticine],78.2 ± 23.8%
17,Clc1ccc(C(c2ccccc2Cl)C(Cl)Cl)cc1 (stereo not drawn),87.8 ± 23.1%
18,CC(C)(C)c1ccc(C(O)CCCN2CCC(C(O)(c3ccccc3)c3ccccc3)CC2)cc1 (stereo not drawn) [Terfenadine],101.9 ± 5.3%
19,C[N+](C)(C)CC=O [Betaine aldehyde chloride],95.0 ± 5.8%
20,CN1CC(=O)NC1=NC(=O)Nc1cccc(Cl)c1 [Fenobam],81.9 ± 15.0%
21,CC(C)OC(=O)C(C)(C)Oc1ccc(C(=O)c2ccc(Cl)cc2)cc1 [Fenofibrate],87.6 ± 17.1%
22,COC(=O)[C@H]1[C@H]2C[C@H]3c4[nH]c5ccccc5c4CCN3C[C@H]2CC[C@@H]1O [Rauwolscine hydrochloride],96.5 ± 8.7%
23,O=[N+]([O-])c1cc2nc(O)c(O)nc2cc1[N+](=O)[O-] [DNQX],85.0 ± 6.8%

# Same assay, conditions: compounds tested at 10 µM; % of control wells (1% DMSO and 25 nM CA200645); whole live cells expressing the A3AR; mean ± SD, three experiments in duplicate
row,Compound,% 25 nM CA200645 binding
1,CCCOc1ccccc1-c1nc2nn[nH]c2c(=O)[nH]1 [Zaprinast],109.4 ± 6.4%
